# Assay results: patent US5948792A, “Fluorine-containing 1,4-disubstituted piperidine derivatives” (Banyu Pharmaceutical Co., Ltd., priority 1996, dated 1999)
# Assays:
# [1] = biological target: T1, Muscarinic M2 receptor (Homo sapiens, UniProt P08172); test: Inhibition of binding of [3H]-N-methylscopolamine to muscarinic M2 receptor; conditions: CHO cell membranes expressing cloned human receptor; 0.2 nM [3H]-N-methylscopolamine, pH 7.4, 2 hours, 25° C; read-out: Ki M2 (inhibitory effects on binding to muscarinic M2 receptor)
# T1 construct: purchased Receptor Biology, Inc; host or cells: CHO cells (membranes)
# T1 sequence (P08172 1-466): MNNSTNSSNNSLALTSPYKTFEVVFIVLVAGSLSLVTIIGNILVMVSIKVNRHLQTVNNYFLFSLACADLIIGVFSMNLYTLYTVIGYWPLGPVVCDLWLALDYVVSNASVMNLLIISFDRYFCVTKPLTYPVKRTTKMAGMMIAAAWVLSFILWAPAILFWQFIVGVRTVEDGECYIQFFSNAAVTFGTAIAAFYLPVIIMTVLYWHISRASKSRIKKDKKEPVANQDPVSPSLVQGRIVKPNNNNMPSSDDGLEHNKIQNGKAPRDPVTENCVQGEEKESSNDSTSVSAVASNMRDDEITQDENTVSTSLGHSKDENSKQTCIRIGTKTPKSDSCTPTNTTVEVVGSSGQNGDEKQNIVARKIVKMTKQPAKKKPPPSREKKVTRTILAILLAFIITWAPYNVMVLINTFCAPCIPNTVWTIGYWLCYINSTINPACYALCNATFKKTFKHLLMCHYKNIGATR
# Protocol: (§1) Tests on Inhibition of Binding to Muscarinic Receptors
# (§2) These tests were performed according to a modification of the method of Hargreaves et al. (Br. J. Pharmacol. 107: 494-501, 1992). Membranes from CHO cells expressing cloned human m1-m5 (Receptor Biology, Inc.) were incubated with 0.2 nM [^3 H]-N-methylscopolamine and each a compound of the present invention to be tested in 0.5 ml of 50 mM Tris-HCl-10 mM MgCl2 -1 mM EDTA (pH 7.4) for 2 hours at 25° C. Free and membrane-bound [^3 H]-N-methylscopolamine were separated by filtration over glass filters (UniFilter-GF/C; Packard Instruments Co., Inc.) using cell harvester (Filtermate™ 196; Packard Instruments Co., Inc.). Then the filter was washed four times with 1 ml of ice-cold Tris-HCl (pH 7.4) and dried at 50° C. After adding a scintillator (Microscinti 0; Packard Instruments Co., Inc.), the radioactivity was counted by a liquid scintillation counter (TopCount™; Packard Instruments Co., Inc.). Non-specific binding was measured in the presence of 1 μM N-methylscopolamine.
# [2] = biological target: T2, Muscarinic M3 receptor (Homo sapiens, UniProt P20309); test: Inhibition of binding of [3H]-N-methylscopolamine to muscarinic M3 receptor
# T2 construct: purchased Receptor Biology, Inc; host or cells: CHO cells (membranes)
# Protocol: as §1, §2
# [3] = biological target: T3, Muscarinic M3 Receptor (Rattus norvegicus, UniProt P08483); test: Bronchodilation in rats (i.v.), inhibition of acetylcholine-induced increase in airway resistance; assay type: in vivo; conditions: iv, 5 min, acetylcholine 50 μg/kg i.v. 5 minutes after test compound, read-out: Inhibition of Airway Contraction ED50 iv
# T3 construct: male rats of the Sprague-Dawley strain; from tissue; host or cells: airways of living male Sprague-Dawley rats (in vivo)
# Protocol: (§3) Tests for Antagonism Against Muscarinic M3 Receptor (in vivo)
# 1-A) Tests for Bronchodilation in Rats (i.v.).
# Eight- to eleven-weeks-old male rats of the Sprague-Dawley strain, weighing 380-420 g, were anesthetized with urethane (750 mg/kg. i.p.) and α-chloralose (37.5 mg/kg, i.p.). The bronchus of each rat was intubated, and the right jugular vein was cannulated for drug administration. […] To evoke an increase in airway resistance, acetylcholine (50 μg/kg, i.v.) was administered to the animals. The acetylcholine-induced airway resistance increase was measured 5 minutes before and 5 minutes after administration of test compound, and the ratio of the airway resistance of the latter to the former was calculated. In controls, isotonic sodium chloride solution was used in place of the test compounds and otherwise identical procedures were repeated, the calculated ratio being set to be 100%.
# [4] = biological target: T3, Muscarinic M3 Receptor; test: Bronchodilation in rats (p.o.), inhibition of acetylcholine-induced increase in airway resistance; assay type: in vivo; conditions: po, 1 h, acetylcholine 50 μg/kg i.v. 60 minutes after test compound, read-out: Inhibition of Airway Contraction ED50 po
# Protocol: as §3
# 1-B) Tests for Bronchodilation in Rats (p.o.)
# Eight- to eleven-weeks-old male rats of Sprague-Dawley strain weighing 380-420 g were orally administered with a test compound. The rats were treated in the identical manner as in the i.v. test, starting 30 minutes after the administration, and their airway resistance values were measured. The acetylcholine-(50 μg/kg, i.v.) induced airway resistance increase were measured 60 minutes after the administration of test compounds. In controls, isotonic sodium chloride solution was used in place of the test compounds and otherwise identical procedures were repeated, the ratio between the two airway resistance values whereby being set to be 100%.
# [5] = tested on: Muscarinic M3 Receptor; test: Bronchodilation in dogs (p.o.), methacholine provocation test; assay type: in vivo, dog; conditions: beagle dogs, 1 mg/kg p.o., 4 hours after administration
# Protocol: as §3
# 2) Tests for Bronchodilation in Dogs (p.o.)
# Twelve- to twenty-four-months-old male beagle dogs (weighing 10-15 kg) were anesthetized with pentobarbital (30 mg/kg, i.v.) and intubated in their bronchus. Their airway sensitivity to inhaled methacholine were measured at least twice at two-weeks interval, and the dogs showing a reproducible methacholine reaction threshold values^1) ware selected. To those dogs whose methacholine reaction threshold value had been confirmed, the test compounds were orally administered (1 mg/kg). Four hours after the administration, the methacholine provocation test was conducted, and then the methacholine reaction threshold value^2) after administration of the test compound was obtained.
# The bronchodilator activity of the test compound was determined following equation: [formula]
# The methacholine provocation test was conducted using Astograph TCK-6100H Model (Chest). Methacholine chloride was used as bronchoconstritor, which was diluted with isotonic sodium chloride solution in 10-grade concentration levels starting from 40,000 μg/ml, as 20,000, 10,000, 5,000, 2,500, 1,250, 625, 312.5, 156 and 78 μg/ml. These methacholine aerosols were inhaled to the test animal each for 1 min, starting from the lowest concentration level, and respiration resistance was continuously recorded. The concentration level at which the respiration resistance reached twice the initial value was recorded as the methacholine threshold value.
# T3 sequence (P08483 whole entry): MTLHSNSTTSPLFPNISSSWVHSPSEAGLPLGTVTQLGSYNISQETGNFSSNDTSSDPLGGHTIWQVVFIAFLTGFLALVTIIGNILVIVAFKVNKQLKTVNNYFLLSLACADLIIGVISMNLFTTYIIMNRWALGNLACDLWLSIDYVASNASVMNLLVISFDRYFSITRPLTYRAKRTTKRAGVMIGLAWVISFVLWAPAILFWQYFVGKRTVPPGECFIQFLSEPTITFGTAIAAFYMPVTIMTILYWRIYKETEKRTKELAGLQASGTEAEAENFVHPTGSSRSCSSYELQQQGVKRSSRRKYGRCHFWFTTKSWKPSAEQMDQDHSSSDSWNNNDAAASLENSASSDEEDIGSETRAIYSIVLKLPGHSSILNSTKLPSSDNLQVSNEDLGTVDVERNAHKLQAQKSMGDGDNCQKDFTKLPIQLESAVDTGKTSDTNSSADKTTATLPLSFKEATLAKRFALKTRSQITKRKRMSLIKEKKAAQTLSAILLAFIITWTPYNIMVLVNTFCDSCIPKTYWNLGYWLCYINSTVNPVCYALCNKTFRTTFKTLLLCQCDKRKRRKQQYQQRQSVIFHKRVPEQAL
# T2 sequence (P20309 whole entry): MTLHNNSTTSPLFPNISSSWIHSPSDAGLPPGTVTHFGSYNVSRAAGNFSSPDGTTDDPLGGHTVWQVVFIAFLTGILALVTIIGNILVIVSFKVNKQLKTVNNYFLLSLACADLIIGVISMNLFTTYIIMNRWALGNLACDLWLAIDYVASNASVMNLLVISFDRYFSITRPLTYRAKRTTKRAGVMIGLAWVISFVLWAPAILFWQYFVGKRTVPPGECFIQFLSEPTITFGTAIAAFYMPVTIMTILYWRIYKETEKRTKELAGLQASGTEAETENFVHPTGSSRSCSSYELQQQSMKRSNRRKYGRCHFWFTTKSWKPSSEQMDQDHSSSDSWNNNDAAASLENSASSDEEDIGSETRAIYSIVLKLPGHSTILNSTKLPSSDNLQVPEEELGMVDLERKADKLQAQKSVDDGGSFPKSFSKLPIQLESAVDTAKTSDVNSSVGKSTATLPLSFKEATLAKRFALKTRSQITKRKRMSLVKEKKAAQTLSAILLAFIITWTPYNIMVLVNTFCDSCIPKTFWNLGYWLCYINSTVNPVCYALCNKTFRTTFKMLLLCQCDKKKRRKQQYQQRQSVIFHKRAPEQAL
smiles,measurement,setting,value
"COc1cc(CN2CCC(NC(=O)[C@](O)(c3ccccc3)[C@@H]3CCC(F)(F)C3)CC2)ccc1N [Example 26, (2R)-N-[1-(4-amino-3-methoxybenzyl)piperidin-4-yl]-2-[(1R)-3,3-difluorocyclopentyl]-2-hydroxy-2-phenylacetamide]",Ki,[1],24 µM
same,Ki,"[2]; CHO cell membranes expressing cloned human receptor, 0.2 nM [3H]-N-methylscopolamine, pH 7.4, 2 hours, 25° C, read-out: Ki M3 (inhibitory effects on binding to muscarinic M3 receptor)",0.022 µM
same,M2/M3 (ratio of binding Ki),"[2]; selectivity ratio of Ki values, binding",1100
same,ED50,[3],0.37 mg/kg
same,ED50,[4],0.95 mg/kg
same,Methacholine Inhalation-inducing Test shift value (after 4 hrs.),[5],> 64
